Experimental data from US10100284B2, “Method for inducing differentiation of pluripotent stem cells into endodermal cells” (TOAGOSEI CO., LTD., priority 2013, dated 2018).
Where no end group is shown, it is not given here.

Tested on: iPS cells (clone name: 201B2 or 201B7)
Assay: AFP dot blotting of iPS cell culture supernatant
Type: cell-based, human
Conditions: peptide concentration 6.0 μM; 8th to 20th day of culture in the presence of the peptide; FIG. 5
Description: The stem cell differentiation-inducing activities of the differentiation-inducing synthetic peptides (Samples 2-7) obtained in Example 1 above were evaluated by measuring changes over time in AFP expression levels (typically, extracellular excretion levels). AFP is a differentiation marker protein that is known to be in expressed in cells that have differentiated into liver precursor cells in particular of the endodermal cells. iPS cells that had been cultured and passaged in vitro were used as the test cells. The details of the evaluation test are as follows.
As in Example 3, the peptides of Samples 2 through 7 were added to a peptide concentration of 6.0 μM to added to medium containing cultured iPS cells (clone name: 201B2 or 201B7), and the cells were cultured (Sample Groups 2 through 7). A peptide free-group (comparative example) using cells cultured under the same conditions as in Sample groups 2 through 7 without the addition of a peptide was also established as a control group. […]
After completion of the antigen-antibody reaction with the secondary antibody, Lumina Crescendo Western HRP Substrate (Merck Millipore Corp.) was dripped on the nitrocellulose membrane to react the substrate with the HRP-labeled antibody (secondary antibody), and the target protein (AFP) was detected with a LAS-3000 luminescent image analyzer (Fuji Film).

RLLLLLLVGLTAPALAKKRTLRKNDRKKR-COOH (RLLLLLLVGLTAPALAKKRTLRKNDRKKR-OH) [Sample 4]
amount of AFP in the culture supernatant in comparison with peptide-free group with the same culture time: particularly dramatic
